According to patent US20230048888A1, “USE OF TRIAZOLOTRIAZINE DERIVATIVE IN TREATMENT OF DISEASES” (ZHEJIANG VIMGREEN PHARMACEUTICALS, LTD., priority 2019, published 2023):

Assays:
[1] = tested on: MPTP-induced Parkinson's disease; assay: MPTP-induced mouse Parkinson's disease model, open field test; format: in vivo, C57BL/6 mice; conditions: open field 10 minutes
Description: By injecting the substantia nigra selective toxin MPTP, the mitochondria were intervened to induce lipid peroxidation for disturbing the membrane structure and affecting cell function, and finally the substantia nigra dopaminergic (DA) neurons were selectively destroyed, leading to the massive death of substantia nigra DA neurons, the massive loss of striatum tyrosine hydroxylase-positive fibers, and the significant decrease in the levels of striatum DA and its metabolites 3,4-dihydroxyphenylacetic acid and homovanillic acid. There are also the hyperplasia of the substantia nigra striatal microglia and astrocytes and the damage of locus coeruleus, hypothalamus and other areas, which are basically the same as those in patients with Parkinson's disease. The ameliorative effect of a test substance on the stiffness symptom of Parkinson's disease induced by MPTP in mice was evaluated.
C57BL/6 male mice of 8 weeks old were selected. The 8-week-old C57 mice were intraperitoneally (i.p.) injected with a vehicle dissolved in saline (normal saline) or MPTP (30 mg/kg body weight) for 5 days to induce the Parkinson's disease.
At 0.5 hours after the last MPTP injection, two doses (10 mpk and 30 mpk) were administered by intragastric administration.
At 1.5 hours after the last MPTP injection, an open field test (total travel distance and number of standings) was performed for 10 minutes.

CT26 cells = assay: CT26 murine colon cancer homotransplantation model; format: in vivo, BALB/c mice
Description: The CT26 murine colon cancer homotransplantation model is a classic pharmaceutical effect evaluation model for colon cancer. It is constructed by subcutaneously inoculating CT26 to BALB/c mice. The test compounds were administrated to evaluate their inhibitory effects on tumor growth in the model.
CT26 cells were cultured in an RPMI1640 culture solution containing 10% fetal bovine serum. The CT26 cells in the exponential growth phase were collected and resuspended in PBS to a suitable concentration for subcutaneous tumor inoculation in mice.
Female mice were subcutaneously inoculated with 5×10^5 CT26 cells on the right side. The day of inoculation was defined as Day 0. On the second day (Day 1) of […] cell inoculation, the mice were administered randomly according to body weight.
Tumor proliferation rate, T/C %, was a percentage ratio of tumor volume or tumor weight between the treatment group and the control group at a certain time point. It was calculated with a formula was as follows:
T/C %=TTV/CTV×100% (TTV (TTV: the average TV of the treatment group at a specific time point;

What does the source list for `Nc1nc(NCCc2ccc(NC3COC3)cc2)nc2nc(-c3ccco3)nn12` [Compound 22, 2-(furan-2-yl)-N5-(4-(oxetan-3-ylamino)phenethyl)-[1,2,4]triazolo[1,5-a][1,3,5]triazine-5,7-diamine]?
Moving distance (cm) ([1]; 10 mg/kg p.o. once): 647.0 cm; Number of standings ([1]; 10 mg/kg p.o. once): 18.3; Moving distance (cm) ([1]; 30 mg/kg p.o. once): 1107.3 cm; Number of standings ([1]; 30 mg/kg p.o. once): 31.0; T/C (%) (CT26 cells; Day 26, 100 mg/kg p.o. QD): 81%; TGI (%) (CT26 cells; Day 26, 100 mg/kg p.o. QD): 19%; Tumor volume (CT26 cells; Day 26, 100 mg/kg p.o. QD, in mm³): 1988.56 ± 325.70; Clinical abnormalities during the dosage (CT26 cells; p.o. QD × 25 days): no obvious clinical abnormalities were observed
